From patent US10166218B2, “3-(1H-indol-2-yl)-1H-pyrazolo[3,4-C]pyridines and therapeutic uses thereof” (Samumed, LLC, priority 2015, dated 2019)

Experiments:
[1] = system: primary human fibroblasts derived from IPF patients (LL29 cells) treated with TGF-β1; α-smooth muscle actin (αSMA); assay: Inhibition of the fibrotic process: αSMA staining in TGF-β1 treated primary human fibroblasts from IPF patients (LL29 cells); format: cell-based; settings: Fibroblast, 96 h, TGF-β1 20 ng/mL, 4 days; for EC50: % cells positive for αSMA; for inhibition at 10 µM: αSMA, read-out: percent inhibition at 10 μM (given for EC50 of >10 μM)
How it was run: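 Compound dilutions from 10 μM down to […] are dispensed, LL29 cells added in F12 with 1% FBS, and TGF-β1 (20 ng/mL) follows after 1 h. After 4 days, live-cell αSMA positivity is measured by immunofluorescence and normalized to TGF-β1-treated wells to derive EC50.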

[2] = system: primary human mesenchymal stem cells (hMSCs); assay: Induction of chondrogenesis in primary human mesenchymal stem cells (chondrogenic nodules); format: cell-based; settings: 144 h, 6 days; for EC50: concentration required to induce 50% levels of chondrogenesis of TGF-β3 positive control, read-out: Conc (nM) of 50% TGF-β3 activity; for Emax: nodules, relative to TGF-β3 (10 ng/mL) positive control, read-out: Max. Activity as % TGF-β3 activity
Procedure: Representative compounds were screened using primary human mesenchymal stem cells (hMSCs) to determine their ability to induce chondrogenesis (process by which cartilage is developed).
Primary human mesenchymal stem cells (hMSCs) were purchased from Lonza (Walkersville, Md.) and expanded in Mesenchymal Stem Cell Growth Media (Lonza). Cells between passage 3 and 6 were used for the experiments.
Each compound was dissolved in DMSO as a 10 mM stock and used to prepare compound source plates. Serial dilution (1:3, 6-point dose-response curves from 2700 nM to 10 nM) and compound transfer was performed using the ECHO 550 (Labcyte, Sunnyvale, Calif.) into 96-well clear bottom assay plates (Greiner Bio-One) with appropriate DMSO backfill for a final DMSO concentration of 0.03%. hMSCs were plated at 20,000 cells/well in 250 μL/well Incomplete Chondrogenic Induction Medium (Lonza; DMEM, dexamethasone, ascorbate, insulin-transferrin-selenium [ITS supplement], gentamycin-amphotericin [GA-1000], sodium pyruvate, proline and L-glutamine). TGF-β3 (10 ng/mL) was used as a positive control for differentiation while negative control wells were treated with 75 nL DMSO for normalization and calculating EC50 values. Cells were incubated at 37° C. and 5% CO2 for 6 days. To image chondrogenic nodules, the cells were fixed using 4% formaldehyde (Electron Microscopy Sciences), and stained with 2 μg/mL Rhodamine B (Sigma-Aldrich) and 20 μM Nile Red (Sigma-Aldrich) [Johnson K., et. al, A Stem Cell-Based Approach to Cartilage Repair, Science, (2012), 336(6082), 717-721]. The nodules imaged (4 images per well at 4× magnification) by excitation at 531 nm and emission at 625 nm and quantified using the CellInsight CX5 (Thermo Scientific). Number of nodules in each well was normalized to the average of 3 DMSO treated wells on the same plate using Excel (Microsoft Inc.). The normalized averages (fold change over DMSO) of 3 replicate wells for each compound concentration were calculated. Due to solubility limitations of some of the compounds, curve fitting was incomplete leading to inaccurate EC50 determinations.
Using TGF-β3 as a positive control, the concentration of representative compounds required to induce 50% levels of chondrogenesis is reported. In addition, the maximum activity of each compound and the respective dose that each compound reached maximum chondrogenesis activity is reported.

| SMILES | EC50 [1] [nM] | EC50 [2] [nM] | Emax [2] [%] | inhibition at 10 µM [1] [%] |
| --- | --- | --- | --- | --- |
| CCNCc1cncc(-c2cc3c(-c4cc5c(-c6ccc(F)cc6)cccc5[nH]4)n[nH]c3cn2)c1 [Compound 34, N-((5-(3-(4-(4-Fluorophenyl)-1H-indol-2-yl)-1H-pyrazolo[3,4-c]pyridin-5-yl)pyridin-3-yl)methyl)ethanamine] | 29 | 900 | 268 | – |
| Fc1ccc(-c2cccc3[nH]c(-c4n[nH]c5cnc(-c6cncc(CN7CCCC7)c6)cc45)cc23)cc1 [Compound 42, 3-(4-(4-Fluorophenyl)-1H-indol-2-yl)-5-(5-(pyrrolidin-1-ylmethyl)pyridin-3-yl)-1H-pyrazolo[3,4-c]pyridine] | 78 | 300 | 164 | – |
| Nc1cncc(-c2cc3c(-c4cc5c(-c6ccccc6F)cccc5[nH]4)n[nH]c3cn2)c1 [Compound 59, 5-(3-(4-(2-Fluorophenyl)-1H-indol-2-yl)-1H-pyrazolo[3,4-c]pyridin-5-yl) pyridin-3-amine] | 144 | 30 | 94 | – |
| Fc1ccccc1-c1cccc2[nH]c(-c3n[nH]c4cnc(-c5cncc(CN6CCCCC6)c5)cc34)cc12 [Compound 71, 3-(4-(2-Fluorophenyl)-1H-indol-2-yl)-5-(5-(piperidin-1-ylmethyl)pyridin-3-yl)-1H-pyrazolo[3,4-c]pyridine] | 157 | – | 18 | – |
| CCC(=O)Nc1cncc(-c2cc3c(-c4cc5c(-c6cccnc6)cccc5[nH]4)n[nH]c3cn2)c1 [Compound 85, N-(5-(3-(4-(Pyridin-3-yl)-1H-indol-2-yl)-1H-pyrazolo[3,4-c]pyridin-5-yl)pyridin-3-yl)propionamide] | 553 | – | 101 | – |
| c1cncc(-c2cc3c(-c4cc5c(-c6cccnc6)cccc5[nH]4)n[nH]c3cn2)c1 [Compound 88, 5-(Pyridin-3-yl)-3-(4-(pyridin-3-yl)-1H-indol-2-yl)-1H-pyrazolo[3,4-c]pyridine] | 305 | 30 | 141 | – |
| CC(C)C(=O)Nc1cncc(-c2cc3c(-c4cc5c(-c6cccnc6)cccc5[nH]4)n[nH]c3cn2)c1 [Compound 93, N-(5-(3-(4-(Pyridin-3-yl)-1H-indol-2-yl)-1H-pyrazolo[3,4-c]pyridin-5-yl)pyridin-3-yl)isobutyramide] | 298 | 10 | 201 | – |
| O=C(Nc1cncc(-c2cc3c(-c4cc5c(-c6cccnc6)cccc5[nH]4)n[nH]c3cn2)c1)c1ccccc1 [Compound 95, N-(5-(3-(4-(Pyridin-3-yl)-1H-indol-2-yl)-1H-pyrazolo[3,4-c]pyridin-5-yl)pyridin-3-yl)benzamide] | 166 | 100 | 236 | – |
| c1cncc(-c2cccc3[nH]c(-c4n[nH]c5cnc(-c6cncc(CN7CCCC7)c6)cc45)cc23)c1 [Compound 98, 3-(4-(Pyridin-3-yl)-1H-indol-2-yl)-5-(5-(pyrrolidin-1-ylmethyl)pyridin-3-yl)-1H-pyrazolo[3,4-c]pyridine] | 1610 | – | 22 | – |
| O=C(Nc1cncc(-c2cc3c(-c4cc5c(-c6cccnc6)cccc5[nH]4)n[nH]c3cn2)c1)C1CC1 [Compound 104, N-(5-(3-(4-(Pyridin-3-yl)-1H-indol-2-yl)-1H-pyrazolo[3,4-c]pyridin-5-yl)pyridin-3-yl)cyclopropanecarboxamide] | 189 | 100 | 308 | – |
| Nc1cncc(-c2cc3c(-c4cc5c(-c6ccccn6)cccc5[nH]4)n[nH]c3cn2)c1 [Compound 143, 5-(3-(4-(Pyridin-2-yl)-1H-indol-2-yl)-1H-pyrazolo[3,4-c]pyridin-5-yl) pyridin-3-amine] | 98 | 300 | 118 | – |
| Cc1ccncc1-c1cc2c(-c3cc4c(-c5ccccn5)cccc4[nH]3)n[nH]c2cn1 [Compound 145, 5-(4-Methylpyridin-3-yl)-3-(4-(pyridin-2-yl)-1H-indol-2-yl)-1H-pyrazolo [3,4-c]pyridine] | 223 | 30 | 90 | – |
| CN(C)Cc1cncc(-c2cc3c(-c4cc5c(-c6ccccn6)cccc5[nH]4)n[nH]c3cn2)c1 [Compound 153, N,N-Dimethyl-1-(5-(3-(4-(pyridin-2-yl)-1H-indol-2-yl)-1H-pyrazolo[3,4-c]pyridin-5-yl)pyridin-3-yl)methanamine] | 461 | 30 | 75 | – |
| CCCCC(=O)Nc1cncc(-c2cc3c(-c4cc5c(-c6ccccn6)cccc5[nH]4)n[nH]c3cn2)c1 [Compound 159, N-(5-(3-(4-(Pyridin-2-yl)-1H-indol-2-yl)-1H-pyrazolo[3,4-c]pyridin-5-yl)pyridin-3-yl)pentanamide] | 269 | 900 | 84 | – |
| CC(C)C(=O)Nc1cncc(-c2cc3c(-c4cc5c(N6CCN(C)CC6)cccc5[nH]4)n[nH]c3cn2)c1 [Compound 233] | > 10000 | – | 36 | 74.5 |
| O=C(Nc1cncc(-c2cc3c(-c4cc5ccccc5[nH]4)n[nH]c3cn2)c1)c1ccccc1 [Compound 263, N-(5-(3-(1H-Indol-2-yl)-1H-pyrazolo[3,4-c]pyridin-5-yl)pyridin-3-yl) benzamide] | 65 | – | 122 | – |
| c1ccc2[nH]c(-c3n[nH]c4cnc(-c5cncc(CN6CCCC6)c5)cc34)cc2c1 [Compound 266, 3-(1H-Indol-2-yl)-5-(5-(pyrrolidin-1-ylmethyl)pyridin-3-yl)-1H-pyrazolo [3,4-c]pyridine] | 143 | – | 138 | – |
| c1cc(-c2ccoc2)c2cc(-c3n[nH]c4cnc(-c5cncc(CN6CCCCC6)c5)cc34)[nH]c2c1 [Compound 323, 3-(4-(Furan-3-yl)-1H-indol-2-yl)-5-(5-(piperidin-1-ylmethyl)pyridin-3-yl)-1H-pyrazolo[3,4-c]pyridine] | 261 | – | 85 | – |
| CN(C)CCNc1cc(F)cc(-c2cccc3[nH]c(-c4n[nH]c5cnc(-c6cncc(N)c6)cc45)cc23)c1 [Compound 451, N^1-(3-(2-(5-(5-Aminopyridin-3-yl)-1H-pyrazolo[3,4-c]pyridin-3-yl)-1H-indol-4-yl)-5-fluorophenyl)-N^2,N^2-dimethylethane-1,2-diamine] | 46 | 100 | 180 | – |
| c1cc(-c2ccoc2)c2cc(-c3n[nH]c4cnc(-c5cn[nH]c5)cc34)[nH]c2c1 [Compound 711, 3-(4-(Furan-3-yl)-1H-indol-2-yl)-5-(1H-pyrazol-4-yl)-1H-pyrazolo[3,4-c]pyridine] | 125 | – | – | – |
| c1csc(-c2cccc3[nH]c(-c4n[nH]c5cnc(C6CCNCC6)cc45)cc23)c1 [Compound 725, 5-(Piperidin-4-yl)-3-(4-(thiophen-2-yl)-1H-indol-2-yl)-1H-pyrazolo[3,4-c]pyridine] | > 10000 | – | – | 4.5 |
| Cn1cc(-c2cc3c(-c4cc5ncccc5[nH]4)n[nH]c3cn2)cn1 [Compound 1022, 5-(1-Methyl-1H-pyrazol-4-yl)-3-(1H-pyrrolo[3,2-b]pyridin-2-yl)-1H-pyrazolo[3,4-c]pyridine] | > 10000 | – | – | 44.5 |
| CN(C)CCOc1cncc(-c2cc3c(-c4cc5ncccc5[nH]4)n[nH]c3cn2)c1 [Compound 1029, 2-((5-(3-(1H-Pyrrolo[3,2-b]pyridin-2-yl)-1H-pyrazolo[3,4-c]pyridin-5-yl)pyridin-3-yl)oxy)-N,N-dimethylethan-1-amine] | 1720 | – | – | – |
